Reference: patent US20130012466A1 (priority 2006, published 2013)
Where two headings read alike, the source gives them in different places.

Assays:
[1] = test system: ADR-RES; assay: Cytotoxicity assay (cell titer-glo and calcein AM), ADR-RES; details: NCI/ADR RES, % error in parentheses
[2] = test system: mouse mammary normal epithelial control cell line; assay: Cytotoxicity assay, normal control cell line
[3] = test system: A549; assay: Cytotoxicity assay (cell titer-glo and calcein AM), A549; details: A549, % error in parentheses
[4] = test system: NCI-H460; assay: Cytotoxicity assay (cell titer-glo and calcein AM), NCI-H460; details: NCI-H460, % error in parentheses
[5] = test system: SK-OV-3; assay: Cytotoxicity assay (cell titer-glo and calcein AM), SK-OV-3; details: SK-OV-3, % error in parentheses
[6] = test system: SF-268; assay: Cytotoxicity assay (cell titer-glo and calcein AM), SF-268; details: SF-268, % error in parentheses
[7] = test system: MCF7; assay: Cytotoxicity assay (cell titer-glo and calcein AM), MCF7
[8] = test system: Hep3B; assay: Cytotoxicity assay (cell titer-glo and calcein AM), Hep3B; details: Hep 3B, % error in parentheses
[9] = test system: Du145; assay: Cytotoxicity assay (cell titer-glo and calcein AM), Du145; details: Du145, % error in parentheses
[10] = read-out: Cytotoxicity IC50, NCI/ADR RES, CTG, CTG (cell titer-glo) readout
[11] = read-out: Cytotoxicity IC50, NCI/ADR RES, calcein, calcein AM readout
[12] = read-out: Cytotoxicity IC50, NmuMG, CTG, CTG (cell titer-glo) readout, % error in parentheses
[13] = read-out: Cytotoxicity IC50, NmuMG, calcein, calcein AM readout, % error in parentheses
[14] = read-out: Cytotoxicity IC50, A549, CTG, CTG (cell titer-glo) readout
[15] = read-out: Cytotoxicity IC50, A549, calcein, calcein AM readout
[16] = read-out: Cytotoxicity IC50, NCI-H460, CTG, CTG (cell titer-glo) readout
[17] = read-out: Cytotoxicity IC50, NCI-H460, calcein, calcein AM readout
[18] = read-out: Cytotoxicity IC50, SK-OV-3, CTG, CTG (cell titer-glo) readout
[19] = read-out: Cytotoxicity IC50, SK-OV-3, calcein, calcein AM readout
[20] = read-out: Cytotoxicity IC50, SF-268, CTG, CTG (cell titer-glo) readout
[21] = read-out: Cytotoxicity IC50, SF-268, calcein, calcein AM readout
[22] = read-out: Cytotoxicity IC50, MCF7, CTG, CTG (cell titer-glo) readout, % error in parentheses
[23] = read-out: Cytotoxicity IC50, MCF7, calcein, calcein AM readout, % error in parentheses
[24] = read-out: Cytotoxicity IC50, Hep 3B, CTG, CTG (cell titer-glo) readout
[25] = read-out: Cytotoxicity IC50, Hep 3B, calcein, calcein AM readout
[26] = read-out: Cytotoxicity IC50, Du145, CTG, CTG (cell titer-glo) readout
[27] = read-out: Cytotoxicity IC50, Du145, calcein, calcein AM readout

Structure (SMILES)	IC50 [1, 10]	IC50 [1, 11]	IC50 [2, 12]	IC50 [2, 13]	IC50 [3, 14]	IC50 [3, 15]	IC50 [4, 16]	IC50 [4, 17]	IC50 [5, 18]	IC50 [5, 19]	IC50 [6, 20]	IC50 [6, 21]	IC50 [7, 22]	IC50 [7, 23]	IC50 [8, 24]	IC50 [8, 25]	IC50 [9, 26]	IC50 [9, 27]
COc1cc2c(c(OC)c1OC)-c1ccc(OC)c(=O)cc1C(NC(=O)CN(OC)C1OC(C)C(O)C(O)C1O)CC2 [Col37, L-rhamnoside]	4.56 µM	4.48 µM	7.72 µM	7.76 µM	7.07 µM	7.28 µM	3.72 µM	6.7 µM	5.58 µM	> 10 µM	4.79 µM	4.68 µM	3.81 µM	1.56 µM	8.26 µM	9.57 µM	5.81 µM	4.36 µM
CCCCCCCCCC(=O)NC[C@H]1O[C@@H](N(CC(=O)N[C@H]2CCc3cc(OC)c(OC)c(OC)c3-c3ccc(OC)c(=O)cc32)OC)[C@H](O)[C@@H](O)[C@@H]1O [Col59, 6-deoxy-6-N-decanoyl-D-glucosaminoside]	5.16 µM	7.97 µM	> 10 µM	8.43 µM	8.14 µM	> 10 µM	4.95 µM	5.21 µM	5.08 µM	7.11 µM	5.53 µM	9.44 µM	5.51 µM	6.19 µM	5.7 µM	7.36 µM	5.28 µM	7.09 µM
COc1cc2c(c(OC)c1OC)-c1ccc(OC)c(=O)cc1[C@@H](NC(=O)CN(OC)[C@@H]1O[C@H](CSC(C)=O)[C@H](O)[C@H](O)[C@H]1O)CC2 [Col68, 6-deoxy-6-thio-acyl-D-galactoside]	4.88 µM	2.04 µM	9.83 µM	9.44 µM	4.77 µM	7.67 µM	4.41 µM	3.12 µM	4.5 µM	2.43 µM	3.85 µM	3.27 µM	2.42 µM	2.54 µM	5.22 µM	7.92 µM	4.19 µM	1.73 µM
COc1cc2c(c(OC)c1OC)-c1ccc(OC)c(=O)cc1C(NC(=O)CN(OC)C1OC(C)C(O)C(O)C1O)CC2 [Col14, L-fucoside]	> 10 µM	> 10 µM	> 10 µM	> 10 µM	> 10 µM	> 10 µM	9.03 µM	> 10 µM	> 10 µM	> 10 µM	5.28 µM	9.89 µM	4.95 µM	> 10 µM	> 10 µM	> 10 µM	> 10 µM	> 10 µM
COc1cc2c(c(OC)c1OC)-c1ccc(OC)c(=O)cc1[C@@H](NC(=O)CN(OC)[C@@H]1O[C@H](CN=[N+]=[N-])[C@H](O)[C@H](O)[C@H]1O)CC2 [Col43, 6-deoxy-6-azido-D-galactoside]	5.04 µM	2.51 µM	3.82 µM	3.93 µM	> 10 µM	> 10 µM	5.01 µM	2.36 µM	> 10 µM	5.79 µM	5.15 µM	8.46 µM	4.91 µM	3.68 µM	5.3 µM	3.89 µM	4.87 µM	4.19 µM
COc1cc2c(c(OC)c1OC)-c1ccc(OC)c(=O)cc1[C@@H](NC(=O)CN(OC)[C@@H]1OC[C@@H](O)[C@H](O)[C@H]1O)CC2 [Col4, D-xyloside]	> 10 µM	> 10 µM	> 10 µM	> 10 µM	> 10 µM	> 10 µM	> 10 µM	> 10 µM	> 10 µM	> 10 µM	8.26 µM	8.93 µM	> 10 µM	> 10 µM	> 10 µM	> 3.35 µM	> 10 µM	> 10 µM
COc1cc2c(c(OC)c1OC)-c1ccc(OC)c(=O)cc1[C@@H](NC(=O)CN(OC)[C@@H]1O[C@H](CO)[C@H](O)[C@H](O)[C@H]1NC(C)=O)CC2 [Col28, N-acetyl-D-galactosaminoside]	9.95 µM	> 10 µM	> 10 µM	9.57 µM	> 10 µM	> 10 µM	9.76 µM	> 10 µM	5.18 µM	7.32 µM	5.7 µM	3.56 µM	4.87 µM	6.67 µM		> 10 µM	> 10 µM	> 10 µM
COc1cc2c(c(OC)c1OC)-c1ccc(OC)c(=O)cc1C(NC(=O)CN(OC)C1OCC(O)C(O)C1O)CC2 [Col17, L-xyloside]	> 10 µM	> 10 µM	> 10 µM	> 10 µM	9.4 µM	> 10 µM	5.17 µM	5.61 µM	> 10 µM	> 10 µM	5.93 µM	9.72 µM	6.22 µM	5.09 µM	> 10 µM	> 10 µM	8.48 µM	> 10 µM
COc1cc2c(c(OC)c1OC)-c1ccc(OC)c(=O)cc1C(NC(=O)CN(OC)C1OCC(O)C(O)C1O)CC2 [Col7, L-lyxoside]	> 10 µM	> 10 µM	> 10 µM	> 10 µM	> 10 µM	9.76 µM	7.08 µM	5.69 µM	> 10 µM	5.04 µM	4.97 µM	4.9 µM	2.65 µM	3.99 µM	4.89 µM	4.74 µM	> 10 µM	4.73 µM
COc1cc2c(c(OC)c1OC)-c1ccc(OC)c(=O)cc1C(NC(=O)CN(OC)C1OCC(O)C(O)C1O)CC2 [Col25, L-arabinoside]	5.14 µM	5.53 µM	5.7 µM	> 10 µM	5.02 µM	5.26 µM	4.41 µM	5.78 µM	8.51 µM	2.51 µM	6.8 µM	4.46 µM	3.02 µM	3.43 µM	> 10 µM	> 10 µM	7.4 µM	> 10 µM
COc1cc2c(c(OC)c1OC)-c1ccc(OC)c(=O)cc1[C@@H](NC(=O)CN(OC)[C@@H]1O[C@H](CO)[C@@H](O)C[C@H]1O)CC2 [Col3, 3-deoxy-D-glucoside]	> 10 µM	> 10 µM	> 10 µM	> 10 µM	9.91 µM	> 10 µM	8.37 µM	1.96 µM	4.42 µM	4.21 µM	5.32 µM	8.42 µM	3.25 µM	> 10 µM	5.16 µM	4.07 µM	> 10 µM	6.56 µM
COc1cccc2c1C(=O)c1c(O)c3c(c(O)c1C2=O)C[C@@](O)(C(=O)CO)C[C@@H]3O[C@H]1C[C@H](N)[C@H](O)[C@H](C)O1 [doxorubi]	0.57 µM								0.394 µM	0.621 µM	0.249 µM	0.385 µM			0.519 µM	0.268 µM	0.842 µM	0.339 µM
COc1cc2c(c(OC)c1OC)-c1ccc(OC)c(=O)cc1[C@@H](NC(C)=O)CC2 [Col]	> 10 µM	6.32 µM							> 10 µM		> 10 µM	> 10 µM			> 10 µM	9.38 µM	> 10 µM	4.67 µM
